{
  "source": "patent US20080096894A1",
  "about": "“Anti-Bacterial Compounds” (ASTON UNIVERSITY, priority 2005, published 2008)",
  "key": {"S. aureus": {"test_system": "S. aureus", "assay": "MIC, agar dilution, multipoint inoculator", "format": "cell-based, Staphylococcus aureus", "details": "upper value of MIC reading", "method": "(§1) This activity was measured using a multipoint inoculator method as follows. The MIC for each compound was measured using an agar dilution method (Onda, H., et al., Int. J. Antimicrob. Agents. 18, 263 (2001)) (Mueller Hinton agar) by means of a multipoint inoculator delivering 10^4 colony forming units per spot."}, "MRSA": {"test_system": "MRSA", "assay": "MIC, agar dilution, multipoint inoculator", "format": "cell-based, methicillin-resistant Staphylococcus aureus", "details": "for MIC: upper value of MIC reading, in µg/mL; for MRSA MIC range: panel of ten MRSA strains (clinical isolates)", "method": "as §1\n‘Staph’ refers to the reference strain of S. aureus (NCTC 6571). A tick in the MRSA column refers to a positive zone against MRSA strain 96-7474, and the MIC range (in μg/ml) which follows is that found against a panel of ten MRSA strains. Where MIC values are given for MRSA, these are stated as a range of values, as testing was carried out on a panel of clinical isolates."}, "E. faecalis": {"test_system": "E. faecalis", "assay": "MIC, agar dilution, multipoint inoculator", "format": "cell-based", "details": "upper value of MIC reading", "method": "as §1"}, "E. faecium": {"test_system": "E. faecium", "assay": "MIC, agar dilution, multipoint inoculator", "format": "cell-based, Enterococcus faecium", "details": "upper value of MIC reading", "method": "as §1"}, "[1]": {"test_system": "human mononuclear leucocytes (MNL, white blood cells)", "assay": "direct leucocyte toxicity, tryptan blue exclusion, 18 hours", "format": "cell-based", "method": "The in vitro assay used human mononuclear leucocytes (MNL, white blood cells) which were incubated with the test compound for 18 hours and cell death determined by tryptan blue exclusion (tryptan blue is a dye, which stains dead cells, whilst living cells extrude it).\nThe toxicity of 4PYcq and the aldehyde cq and pyridine-4-carboxamidrazone precursors were assessed using the same in vitro assay with human mononuclear leucocytes as that described above. The toxicity of related compounds, 2-hydroxybenzylidene-pyridine-2-carboxamidrazone 4PYbw and benzylidenepyridine-2-carboxamidrazone 4PYaa were also examined."}, "S. epidemisis": {"test_system": "S. epidemisis", "assay": "MIC, agar dilution, multipoint inoculator", "format": "cell-based, Staphylococcus epidermidis", "details": "upper value of MIC reading", "method": "as §1"}, "S. haemolyticus": {"test_system": "S. haemolyticus", "assay": "MIC, agar dilution, multipoint inoculator", "format": "cell-based", "details": "S. haemolyticus Isolate 1; upper value of MIC reading", "method": "as §1"}},
  "data": [
    {"smiles": "NC(=NN=Cc1cc(Br)cc([N+](=O)[O-])c1O)c1ccccn1", "note": "[Compound 2PYcl]", "values": [
      {"measurement": "MIC", "setting": "S. aureus; S. aureus Cowan 1", "value": 64, "unit": "µg/mL"},
      {"measurement": "MIC", "setting": "S. aureus; S. aureus NCTC 6571", "value": 32, "unit": "µg/mL"},
      {"measurement": "MIC", "setting": "S. aureus; S. aureus NCTC 10788", "value": 32, "unit": "µg/mL"},
      {"measurement": "MIC", "setting": "MRSA; MRSA Isolate 1", "value": 64},
      {"measurement": "MIC", "setting": "MRSA; MRSA Isolate 2", "value": 64},
      {"measurement": "MIC", "setting": "MRSA; MRSA Isolate 3", "value": 64},
      {"measurement": "MIC", "setting": "MRSA; MRSA Isolate 4", "value": 32},
      {"measurement": "MIC", "setting": "MRSA; MRSA Isolate 5", "value": 32},
      {"measurement": "MIC", "setting": "MRSA; MRSA Isolate 6", "value": 64},
      {"measurement": "MIC", "setting": "MRSA; MRSA Isolate 7", "value": 64},
      {"measurement": "MIC", "setting": "MRSA; MRSA Isolate 8", "value": 64},
      {"measurement": "MIC", "setting": "MRSA; MRSA Isolate 9", "value": 64},
      {"measurement": "MIC", "setting": "MRSA; MRSA Isolate 10", "value": 64},
      {"measurement": "MIC", "setting": "E. faecalis; E. faecalis EBH1", "value": 256, "unit": "µg/mL"},
      {"measurement": "MIC", "setting": "E. faecalis; E. faecalis NCTC 5957", "value": 256, "unit": "µg/mL"},
      {"measurement": "MIC", "setting": "E. faecium; E. faecium ACTCC 10541", "value": 128, "unit": "µg/mL"},
      {"measurement": "MIC", "setting": "E. faecium; E. faecium NCTC 7171", "value": 256, "unit": "µg/mL"}
    ]},
    {"smiles": "N/C(=N\\N=C\\c1ccccc1Sc1ccc(Cl)cc1)c1ccccn1", "note": "[Compound 2PYeh]", "values": [
      {"measurement": "direct MNL toxicity (in words)", "setting": "[1]", "value": "indistinguishable from the background levels"},
      {"measurement": "% Leucocyte Death", "setting": "[1]; human, 18 h, 0.1 mM", "value": "3.7 ± 2.6", "unit": "%"}
    ]},
    {"smiles": "NC(=NN=Cc1cc(I)cc(I)c1O)c1ccncc1", "note": "[Compound 4PYco]", "values": [
      {"measurement": "MRSA MIC range", "setting": "MRSA", "value": "10 to 20", "unit": "µg/mL"}
    ]},
    {"smiles": "NC(=NN=Cc1cc(O)c(O)cc1O)c1ccncc1", "note": "[Compound 4PYcc]", "values": [
      {"measurement": "MRSA MIC range", "setting": "MRSA", "value": "20 to 30", "unit": "µg/mL"}
    ]},
    {"smiles": "NC(=NN=Cc1ccc(O)c(O)c1O)c1ccncc1", "note": "[Compound 4PYcb]", "values": [
      {"measurement": "MRSA MIC range", "setting": "MRSA", "value": "30 to 40", "unit": "µg/mL"}
    ]},
    {"smiles": "NC(=NN=Cc1cc([N+](=O)[O-])ccc1O)c1cnccn1", "note": "[PZcj]", "values": [
      {"measurement": "MIC", "setting": "S. aureus; S. aureus Cowan 1", "value": 256, "unit": "µg/mL"},
      {"measurement": "MIC", "setting": "S. aureus; S. aureus NCTC 6571", "value": 16, "unit": "µg/mL"},
      {"measurement": "MIC", "setting": "S. aureus; S. aureus NCTC 10788", "value": 16, "unit": "µg/mL"},
      {"measurement": "MIC", "setting": "MRSA; MRSA Isolate 1", "value": 8},
      {"measurement": "MIC", "setting": "MRSA; MRSA Isolate 2", "value": 8},
      {"measurement": "MIC", "setting": "MRSA; MRSA Isolate 3", "value": 4},
      {"measurement": "MIC", "setting": "MRSA; MRSA Isolate 4", "value": 4},
      {"measurement": "MIC", "setting": "MRSA; MRSA Isolate 5", "value": 16},
      {"measurement": "MIC", "setting": "MRSA; MRSA Isolate 6", "value": 16},
      {"measurement": "MIC", "setting": "MRSA; MRSA Isolate 7", "value": 16},
      {"measurement": "MIC", "setting": "MRSA; MRSA Isolate 8", "value": 16},
      {"measurement": "MIC", "setting": "MRSA; MRSA Isolate 9", "value": 16},
      {"measurement": "MIC", "setting": "MRSA; MRSA Isolate 10", "value": 16},
      {"measurement": "MRSA MIC range", "setting": "MRSA", "value": "4 to 16", "unit": "µg/mL"},
      {"measurement": "MIC", "setting": "E. faecalis; E. faecalis Isolate 3", "value": 256, "unit": "µg/mL"},
      {"measurement": "MIC", "setting": "S. epidemisis; S. epidemisis Isolate 1", "value": 256, "unit": "µg/mL"}
    ]},
    {"smiles": "NC(=NN=Cc1cc([N+](=O)[O-])ccc1O)c1ccccn1", "note": "[Compound 2PYcj]", "values": [
      {"measurement": "MIC", "setting": "S. aureus; S. aureus Cowan 1", "value": 32, "unit": "µg/mL"},
      {"measurement": "MIC", "setting": "S. aureus; S. aureus NCTC 6571", "value": 16, "unit": "µg/mL"},
      {"measurement": "MIC", "setting": "S. aureus; S. aureus NCTC 10788", "value": 16, "unit": "µg/mL"},
      {"measurement": "MIC", "setting": "MRSA; MRSA Isolate 1", "value": 16},
      {"measurement": "MIC", "setting": "MRSA; MRSA Isolate 2", "value": 16},
      {"measurement": "MIC", "setting": "MRSA; MRSA Isolate 3", "value": 4},
      {"measurement": "MIC", "setting": "MRSA; MRSA Isolate 4", "value": 8},
      {"measurement": "MIC", "setting": "MRSA; MRSA Isolate 5", "value": 16},
      {"measurement": "MIC", "setting": "MRSA; MRSA Isolate 6", "value": 16},
      {"measurement": "MIC", "setting": "MRSA; MRSA Isolate 7", "value": 8},
      {"measurement": "MIC", "setting": "MRSA; MRSA Isolate 8", "value": "4-8"},
      {"measurement": "MIC", "setting": "MRSA; MRSA Isolate 9", "value": 8},
      {"measurement": "MIC", "setting": "MRSA; MRSA Isolate 10", "value": 8},
      {"measurement": "MRSA MIC range", "setting": "MRSA", "value": "4 to 32", "unit": "µg/mL"},
      {"measurement": "MIC", "setting": "S. haemolyticus", "value": 256, "unit": "µg/mL"},
      {"measurement": "MIC", "setting": "E. faecalis; E. faecalis Isolate 3", "value": 256, "unit": "µg/mL"},
      {"measurement": "MIC", "setting": "E. faecalis; E. faecalis Isolate 5", "value": 256, "unit": "µg/mL"},
      {"measurement": "MIC", "setting": "S. epidemisis; S. epidemisis Isolate 1", "value": 256, "unit": "µg/mL"},
      {"measurement": "MIC", "setting": "S. epidemisis; S. epidemisis NCTC 11047", "value": 256, "unit": "µg/mL"}
    ]},
    {"smiles": "O=Cc1cccc2ccccc12", "note": "[al]", "values": [
      {"measurement": "% Leucocyte Death", "setting": "[1]; 1.0 mM, 18 hours", "value": "9.2 ± 4.7", "unit": "%"}
    ]},
    {"smiles": "NC(=NN=Cc1cccc(Cl)c1)c1ccccn1", "note": "[Compound 2PYdg]", "values": [
      {"measurement": "MRSA MIC range", "setting": "MRSA", "value": "64 to 128", "unit": "µg/mL"}
    ]},
    {"smiles": "NC(=NN=Cc1cc(Br)cc([N+](=O)[O-])c1O)c1ccc2ccccc2n1", "note": "[QNcl]", "values": [
      {"measurement": "MIC", "setting": "S. aureus; S. aureus NCTC 6571", "value": "> 256", "unit": "µg/mL"},
      {"measurement": "MIC", "setting": "MRSA; MRSA Isolate 2", "value": 64},
      {"measurement": "MIC", "setting": "MRSA; MRSA Isolate 3", "value": 64},
      {"measurement": "MIC", "setting": "MRSA; MRSA Isolate 4", "value": 64},
      {"measurement": "MIC", "setting": "S. haemolyticus", "value": 256, "unit": "µg/mL"},
      {"measurement": "MIC", "setting": "E. faecalis; E. faecalis Isolate 2", "value": 256, "unit": "µg/mL"},
      {"measurement": "MIC", "setting": "E. faecalis; E. faecalis Isolate 3", "value": 256, "unit": "µg/mL"},
      {"measurement": "MIC", "setting": "S. epidemisis; S. epidemisis NCTC 11047", "value": 256, "unit": "µg/mL"}
    ]},
    {"smiles": "Cc1ccccc1C=NN=C(N)c1ccccn1", "note": "[Compound 2PYah]", "values": [
      {"measurement": "MRSA MIC range", "setting": "MRSA", "value": "128 to 256", "unit": "µg/mL"}
    ]}
  ]
}
